{"source": "patent US7842479B2", "about": "(priority 2004, dated 2010)", "key": {"[1]": {"system": "cidABC and lrgAB transcription", "format": "cell-based, S. aureus"}, "[2]": {"system": "cidC-encoded pyruvate oxidase", "format": "biochemical, S. aureus"}, "S. aureus UAMS-1": {"system": "S. aureus UAMS-1", "format": "cell-based"}, "[3]": {"system": "S. aureus KB1050 (cidA mutant)", "format": "cell-based"}, "SH1000 strain [4]": {"system": "SH1000 strain", "format": "cell-based"}, "8325-4 strain [5]": {"system": "8325-4 strain", "format": "cell-based"}, "SH1000 strain [6]": {"system": "SH1000 strain", "format": "cell-based", "remark": "listed apart in the source"}, "8325-4 strain [7]": {"system": "8325-4 strain"}}, "note": "Entries after “also recorded” stand apart in the source; their conditions may differ. Counter-ions that a name gives are not always drawn. Like-named read-outs stand apart in the source and are kept apart here."}
{"smiles": "Cl", "note": "[HCl]", "values": [{"measurement": "cidABC and lrgAB expression", "setting": "[1]; pH 5", "result": "elevated the expression of cidABC relative to growth in neutral media"}]}
{"smiles": "CC(=O)[O-].[Na+]", "note": "[Na-acetate, sodium acetate]", "values": [{"measurement": "cidABC and lrgAB expression", "setting": "[1]; pH 4.5", "result": "dramatically increased"}, {"measurement": "cidABC and lrgAB expression", "setting": "[1]; pH 6.5", "result": "undetectable"}]}
{"smiles": "[Cl-].[Na+]", "note": "[NaCl, sodium chloride]", "values": [{"measurement": "cidABC and lrgAB expression", "setting": "[1]; pH 4.5", "result": "not detected at any of the pH values tested"}]}
{"smiles": "CC(=O)O", "note": "[acetic acid]", "values": [{"measurement": "cidABC expression", "setting": "[1]", "result": "dramatically increased expression of cidABC"}, {"measurement": "cidABC and lrgAB expression", "setting": "[1]; pH 5", "result": "pronounced positive effect on both cidABC and lrgAB expression"}, {"measurement": "alsSD expression", "setting": "alsSD transcription", "result": "dramatically increased expression of alsSD at all time points tested"}]}
{"smiles": "OCC(O)CO", "note": "[glycerol]", "values": [{"measurement": "pyruvate oxidase activity with carbon source added instead of sodium pyruvate", "setting": "[2]", "result": "the only one that possessed activity was the phosphoenol pyruvate"}]}
{"smiles": "C=C(OP(=O)(O)O)C(=O)O", "note": "[phosphoenol pyruvate]", "values": [{"measurement": "pyruvate oxidase activity with carbon source added instead of sodium pyruvate", "setting": "[2]", "result": "approximately half of what was seen with sodium pyruvate"}]}
{"smiles": "CC(=O)[O-].[K+]", "note": "[potassium acetate]", "values": [{"measurement": "pyruvate oxidase activity with carbon source added instead of sodium pyruvate", "setting": "[2]", "result": "the only one that possessed activity was the phosphoenol pyruvate"}]}
{"smiles": "CO[C@H]1/C=C/O[C@@]2(C)Oc3c(C)c(O)c4c(O)c(c(/C=N/N5CCN(C)CC5)c(O)c4c3C2=O)NC(=O)/C(C)=C\\C=C\\[C@H](C)[C@H](O)[C@@H](C)[C@@H](O)[C@@H](C)[C@H](OC(C)=O)[C@@H]1C", "note": "[rifampin]", "values": [{"measurement": "decrease in viable cell counts", "setting": "S. aureus UAMS-1", "result": "three log decrease in viable cell counts; also recorded: just over one log decrease"}, {"measurement": "rifampin sensitivity relative to UAMS-1", "setting": "[3]", "result": "decreased rifampin sensitivity relative to UAMS-1"}, {"measurement": "viable cell counts compared to UAMS-1 after incubation with rifampin", "setting": "[3]", "result": "greater than one log unit higher viable cell counts"}, {"measurement": "loss of viable cell counts", "setting": "SH1000 strain [4]", "result": "lose two log units of viable cell counts"}, {"measurement": "loss of viable cell counts", "setting": "8325-4 strain [5]", "result": "lose two log units of viable cell counts"}, {"measurement": "loss of viability", "setting": "SH1000 strain [6]", "result": "two log loss of viability"}, {"measurement": "difference in viable cell counts determined using the two methods", "setting": "8325-4 strain [7]", "result": "greater than 1,000 fold"}, {"measurement": "viability", "setting": "8325-4 strain [7]; Staphylococcus aureus", "result": "~100", "unit": "%"}]}
{"smiles": "CC(O)C(=O)[O-].[Na+]", "note": "(stereo not shown) [sodium lactate]", "values": [{"measurement": "pyruvate oxidase activity with carbon source added instead of sodium pyruvate", "setting": "[2]", "result": "the only one that possessed activity was the phosphoenol pyruvate"}]}
